Data published in US8299074B2, “P38 MAP kinase inhibitors” (RespiVert Ltd., priority 2008, dated 2012).
Read-outs that look alike come from different tables or passages of the source.

What was measured:
THP-1 cells = assay: LPS-induced TNF alpha release in THP-1 cells; assay type: cell-based; conditions: Homo sapiens, THP-1, read-out: THP-1 (LPS) TNFα IC50
Procedure: LPS-Induced TNF Alpha Release in THP-1 Cells: Potency […] Coli; O111:B4, Sigma) for 4 hr and the supernatant collected for determination of TNFα concentration by sandwich ELISA (Duo-set, R&D systems). The inhibition of TNFα production was calculated at each concentration by comparison with vehicle control.

BEAS2B cells = assay: Poly I:C-induced ICAM-1 induction in BEAS2B cells; assay type: cell-based; conditions: Homo sapiens, BEAS-2B, read-out: BEAS2B (polyIC) ICAM1 IC50
Procedure: Poly I:C-Induced ICAM-1 Induction in BEAS2B Cells: Potency Poly I:C (1 ug/ml) (Invivogen Ltd., San Diego, Calif.) was transfected into BEAS2B cells (human bronchial epithelial cells, ATCC) with Oligofectamine (Invitrogen, Carlsbad, Calif.). Cells were pre-incubated with final concentrations of compound for 2 hrs. The level of ICAM1 expression on the cell surface was determined by cell-based ELISA. Briefly, at 18 hrs after poly I:C transfection, cells were fixed with 4% formaldehyde in PBS. After quenching endogenous peroxidase by adding 0.1% sodium azide and 1% hydrogen peroxide, cells were washed with wash-buffer (0.1% Tween in PBS: PBS-Tween). After blocking the wells with 5% milk in PBS-Tween for 1 hr, the cells were incubated with anti-human ICAM-1 antibody (Cell Signaling Technology, Danvers, Mass.) in 1% BSA PBS overnight at 4° C. Cells were washed with PBS-Tween and incubated with the secondary antibody (HRP-conjugated anti-rabbit IgG, Dako Ltd., Glostrup, Denmark). The ICAM-1 signal was detected by adding substrate and reading at 450 nm with a reference wavelength of 655 nm using a spectrophotometer. […] The measured OD 450-655 readings were corrected for cell number by dividing with the OD595 reading in each well.

U937 cells [1] = assay: LPS-induced IL-8 release in U937 cells; assay type: cell-based; conditions: Homo sapiens, read-out: DU937 (LPS) IL-8 IC50
Procedure: (§1) LPS-Induced TNF Alpha/IL-8 Release in U937 Cells: Potency U937 cells, human monocytic cell line, were differentiated to macrophage-type cells by incubation with phorbol myristate acetate (PMA; 100 ng/ml) for 48 to 72 hours. Cells were pre-incubated with final concentrations of compound for 2 hrs. […] Coli: O111:B4, Sigma) for 4 hrs, and the supernatant collected for determination of TNFα and IL-8 concentration by sandwich ELISA (Duo-set, R&D systems). […] The inhibition of IL-8 production was calculated at each concentration of test compound by comparison with vehicle control.

p38 MAPK alpha (MAPK14) = molecular target: T1, p38 MAPK alpha (MAPK14) (Homo sapiens, UniProt Q16539); assay: Enzyme inhibition assay, p38 MAPK alpha (FRET, Z-LYTE, via MAPKAP-K2); assay type: biochemical; conditions: read-out: Enzyme p38α IC50
T1 construct: purchased Invitrogen

[2] = test system: Differentiated U937 cells; assay: MTT assay (cell viability); assay type: cell-based, human
Procedure: MTT Assay Differentiated U937 cells were pre-incubated with compound for 4 hrs in 5% FCS or 10% FCS for 24 hrs. […] After 1 hr incubation, the media were removed, 200 ul of DMSO added to each well and the plates were shaken lightly for 1 h prior to reading the absorbance at 550 nm. The percentage loss of cell viability was calculated for each well relative to vehicle (0.5% DMSO)-treatment. Consequently an apparent increase in cell viability for drug treatment relative to vehicle is tabulated as a negative percentage.

U937 cells [3] = assay: LPS-induced TNF alpha release in U937 cells; assay type: cell-based; conditions: Homo sapiens; read-out: DU937 (LPS) TNFα REC50
Procedure: as §1

[4] = Table 3, first MTT column, loss of cell viability at 1 μg/ml
[5] = Table 3, second MTT column, loss of cell viability at 1 μg/ml
[6] = Table 2, loss of cell viability at 1 μg/ml
[7] = Table 2, loss of cell viability, test conducted at 10 μg/ml

T1 sequence (Q16539 whole entry): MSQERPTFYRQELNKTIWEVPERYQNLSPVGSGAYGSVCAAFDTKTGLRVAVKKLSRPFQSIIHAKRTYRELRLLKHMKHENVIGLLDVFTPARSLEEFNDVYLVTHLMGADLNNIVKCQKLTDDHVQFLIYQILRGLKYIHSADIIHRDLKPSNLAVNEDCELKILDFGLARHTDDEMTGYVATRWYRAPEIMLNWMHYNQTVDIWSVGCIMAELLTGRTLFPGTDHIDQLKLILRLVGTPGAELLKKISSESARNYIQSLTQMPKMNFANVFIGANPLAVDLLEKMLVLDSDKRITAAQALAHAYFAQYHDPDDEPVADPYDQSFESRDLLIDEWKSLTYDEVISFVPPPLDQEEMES

Compound	IC50 (THP-1 cells; Table 3) [nM]	IC50 (U937 cells [1]; Table 3) [nM]	IC50 (p38 MAPK alpha (MAPK14); Table 3) [nM]	EC50 (U937 cells [3]) [nM]	IC50 (THP-1 cells; Table 2) [nM]	IC50 (U937 cells [1]; Table 2) [nM]	IC50 (p38 MAPK alpha (MAPK14); Table 2) [nM]	IC50 (BEAS2B cells; Table 3) [nM]	IC50 (BEAS2B cells; Table 2) [nM]	further results
Cc1ccc(-n2nc(C(C)(C)C)cc2NC(=O)Nc2ccc(Oc3ccnc(NC(=O)NCC(=O)N4CCN(C)CC4)c3)c3ccccc23)cc1 [Example 61, 1-(2-(3-(4-(4-(3-(3-tert-Butyl-1-p-tolyl-1H-pyrazol-5-yl)ureido)naphthalen-1-yloxy)pyridin-2-yl)ureido)acetyl)-4-methylpiperazine]	< 10	< 10	< 10	< 10	–	–	–	< 10	–	DU937 (cell viability) MTT assay 4 h [2, 4]: − (<=30%); DU937 (cell viability) MTT assay 4 h [2, 5]: − (<=30%)
CCNC(=O)Nc1cc(Oc2ccc(NC(=O)Nc3cc(C(C)(C)C)nn3-c3ccc(C)cc3)c3ccccc23)ccn1 [Example 28, N-Ethyl-N′-4-(4-(3-(3-tert-butyl-1-p-tolyl-1H-pyrazol-5-yl)ureido)naphthalen-1-yloxy)pyridin-2-ylurea]	< 10	< 5000	< 5000	< 5000	–	–	–	< 5000	–	DU937 (cell viability) MTT assay 4 h ([2]; Table 3, first MTT column, loss of cell viability, test conducted at 10 μg/ml): −^$ (<=30%); DU937 (cell viability) MTT assay 4 h ([2]; Table 3, second MTT column, loss of cell viability, test conducted at 10 μg/ml): −^$ (<=30%)
COCC(=O)Nc1cc(Oc2ccc(NC(=O)Nc3cc(C(C)(C)C)nn3-c3ccc(C)cc3)cc2C)ccn1 [Example 23, N-(4-(4-(3-(3-tert-Butyl-1-p-tolyl-1H-pyrazol-5-yl)ureido)-2-methylphenoxy)pyridin-2-yl)-2-methoxyacetamide]	–	–	–	< 10	< 10	< 10	< 5000	–	< 5000	DU937 (cell viability) MTT assay 4 h [2, 6]: − (<=30%); DU937 (cell viability) MTT assay 24 h [2, 6]: − (<=30%)
COCC(=O)Nc1cc(Oc2ccc(NC(=O)Nc3cc(C(C)(C)C)nn3-c3ccc(C)cc3)c3ccccc23)ncn1 [Example 63, N-(6-(4-(3-(3-tert-Butyl-1-p-tolyl-1H-pyrazol-5-yl)ureido)naphthalen-1-yloxy)pyrimidin-4-yl)-2-methoxyacetamide]	–	–	–	< 10	–	–	–	–	–	IC50 (THP-1 cells; Table 1): < 10 nM; IC50 (BEAS2B cells; Table 1): < 5000 nM; IC50 (U937 cells [1]; Table 1): < 10 nM; IC50 (p38 MAPK alpha (MAPK14); Table 1): < 10 nM; DU937 (cell viability) MTT assay 4 h ([2]; Table 1, MTT, loss of cell viability, test conducted at 10 μg/ml): +^$ (>30%); DU937 (cell viability) MTT assay 4 h ([2]; Table 1, first MTT column, loss of cell viability, test conducted at 10 μg/ml): −^$ (<=30%)
Cc1ccc(-n2nc(C(C)(C)C)cc2NC(=O)Nc2ccc(Oc3ccnc(NC(=O)NCc4cc(C)no4)c3)c3ccccc23)cc1 [Example 49, N-(3-Methylisoxazol-5-yl)methyl-N′-4-(4-(3-(3-tert-butyl-1-p-tolyl-1H-pyrazol-5-yl)ureido)naphthalen-1-yloxy)pyridin-2-ylurea]	< 10	< 5000	< 10	< 10	–	–	–	< 5000	–	DU937 (cell viability) MTT assay 4 h [2, 4]: − (<=30%); DU937 (cell viability) MTT assay 4 h [2, 5]: − (<=30%)

More lines, main results first:

IC50 (THP-1 cells; Table 3) [nM]	IC50 (U937 cells [1]; Table 3) [nM]	IC50 (p38 MAPK alpha (MAPK14); Table 3) [nM]	EC50 (U937 cells [3]) [nM]	IC50 (THP-1 cells; Table 2) [nM]	IC50 (U937 cells [1]; Table 2) [nM]	IC50 (p38 MAPK alpha (MAPK14); Table 2) [nM]	Compound	IC50 (BEAS2B cells; Table 3) [nM]	IC50 (BEAS2B cells; Table 2) [nM]	further results
–	–	–	< 10	< 10	< 10	< 10	COCC(=O)Nc1cc(Oc2ccc(NC(=O)Nc3cc(C(C)(C)CO)nn3-c3ccc(C)cc3)c3ccccc23)ccn1 [Example 9, N-(4-(4-(3-(3-(1-Hydroxy-2-methylpropan-2-yl)-1-p-tolyl-1H-pyrazol-5-yl)ureido)naphthalen-1-yloxy)pyridin-2-yl)-2-methoxyacetamide]	–	< 5000	DU937 (cell viability) MTT assay 4 h [2, 6]: − (<=30%); DU937 (cell viability) MTT assay 24 h [2, 6]: − (<=30%)
–	–	–	< 10	< 10	< 10	< 10	COCCNCC(=O)Nc1cc(Oc2ccc(NC(=O)Nc3cc(C(C)(C)C)nn3-c3ccc(C)cc3)c3ccccc23)ccn1 [Example 13, N-(4-(4-(3-(3-tert-Butyl-1-p-tolyl-1H-pyrazol-5-yl)ureido)naphthalen-1-yloxy)pyridin-2-yl)-2-(2-methoxyethylamino)acetamide]	–	< 10	DU937 (cell viability) MTT assay 4 h [2, 7]: −^$ (<=30%); DU937 (cell viability) MTT assay 24 h [2, 7]: +^$ (>30%)
